Results on 15 molecules are retold here after US8933052B2, “Uracyl spirooxetane nucleosides” (Janssen Products, LP, priority 2009, dated 2015).

Where two headings read alike, the source gives them in different places.

A short description of data set [1]: Cellular toxicity in the HIV cell-line MT-4. It counts as cell-based. The conditions noted are these: human, MT-4 cells, read-out: CC50 (μM) (MT4). The source says: (§1) Also the HIV activity is given (EC50 HIV (μM)) and the cellular toxicity in the HIV cell-line (CC50 (μM) (MT-4)).
Data set [2] is described as follows: Cytotoxicity in Huh-7 cells. It counts as cell-based. The conditions noted are these: human. The source says:
The in vitro antiviral activity against HCV of the compounds of formula I can be tested in a cellular HCV replicon system based on Lohmann et al. (1999) Science 285:110-113, with the further modifications described by Krieger et al. (2001) Journal of Virology 75: 4614-4624 (incorporated herein by reference), which is further exemplified in the examples section. This model, while not a complete infection model for HCV, is widely accepted as the most robust and efficient model of autonomous HCV RNA replication currently available. It will be appreciated that it is important to distinguish between compounds that specifically interfere with HCV functions from those that exert cytotoxic or cytostatic effects in the HCV replicon model, and as a consequence cause a decrease in HCV RNA or linked reporter enzyme concentration. Assays are known in the field for the evaluation of cellular cytotoxicity based for example on the activity of mitochondrial enzymes using fluorogenic redox dyes such as resazurin. Furthermore, cellular counter screens exist for the evaluation of non-selective inhibition of linked reporter gene activity, such as firefly luciferase. Appropriate cell types can be equipped by stable transfection with a luciferase reporter gene whose expression is dependent on a constitutively active gene promoter, and such cells can be used as a counter-screen to eliminate non-selective inhibitors. […]

For data set [3], the system named is HCV type 1b replicon. Put plainly: HCV replicon assay (Huh-Luc cells, luciferase readout). It is filed as cell-based. As to conditions: Hepatitis C virus, 72 h, read-out: EC50 (μM) (HCV). The source says:
The in vitro antiviral activity against HCV of the compounds of formula I can be tested in a cellular HCV replicon system based on Lohmann et al. (1999) Science 285:110-113, with the further modifications described by Krieger et al. (2001) Journal of Virology 75: 4614-4624 (incorporated herein by reference), which is further exemplified in the examples section. This model, while not a complete infection model for HCV, is widely accepted as the most robust and efficient model of autonomous HCV RNA replication currently available. It will be appreciated that it is important to distinguish between compounds that specifically interfere with HCV functions from those that exert cytotoxic or cytostatic effects in the HCV replicon model, and as a consequence cause a decrease in HCV RNA or linked reporter enzyme concentration. Assays are known in the field for the evaluation of cellular cytotoxicity based for example on the activity of mitochondrial enzymes using fluorogenic redox dyes such as resazurin. Furthermore, cellular counter screens exist for the evaluation of non-selective inhibition of linked reporter gene activity, such as firefly luciferase. Appropriate cell types can be equipped by stable transfection with a luciferase reporter gene whose expression is dependent on a constitutively active gene promoter, and such cells can be used as a counter-screen to eliminate non-selective inhibitors.
The compounds of formula I were examined for activity in the inhibition of HCV-RNA replication in a cellular assay. […] The cellular assay was based on a bicistronic expression construct, as described by Lohmann et al. (1999) Science vol. 285 pp. 110-113 with modifications described by Krieger et al. (2001) Journal of Virology 75: 4614-4624, in a multi-target screening strategy.
In essence, the method was as follows. The assay utilized the stably transfected cell line Huh-7 luc/neo (hereafter referred to as Huh-Luc). This cell line harbors an RNA encoding a bicistronic expression construct comprising the wild type NS3-NS5B regions of HCV type 1b translated from an internal ribosome entry site (IRES) from encephalomyocarditis virus (EMCV), preceded by a reporter portion (FfL-luciferase), and a selectable marker portion (neo^R, neomycine phosphotransferase). The construct is bordered by 5′ and 3′ NTRs (non-translated regions) from HCV genotype 1b. Continued culture of the replicon cells in the presence of G418 (neo^R) is dependent on the replication of the HCV-RNA. The stably transfected replicon cells that express HCV-RNA, which replicates autonomously and to high levels, encoding inter alia luciferase, were used for screening the antiviral compounds.
The replicon cells were plated in 384-well plates in the presence of the test and control compounds which were added in various concentrations. Following an incubation of three days, HCV replication was measured by assaying luciferase activity (using standard luciferase assay substrates and reagents and a Perkin Elmer ViewLux™ ultraHTS microplate imager). Replicon cells in the control cultures have high luciferase expression in the absence of any inhibitor. The inhibitory activity of the compound on luciferase activity was monitored on the Huh-Luc cells, enabling a dose-response curve for each test compound. EC50 values were then calculated, which value represents the amount of the compound required to decrease the level of detected luciferase activity by 50%, or more specifically, the ability of the genetically linked HCV replicon RNA to replicate.
For orientation: A replicon is a self-replicating genome or part of one, used to study replication in cells.

The subject of data set [4] is HIV. Put plainly: HIV activity. It is filed as cell-based. As to conditions: Human immunodeficiency virus 1, read-out: EC50 (μM) (HIV).
Excerpt: as §1

Data set [5] relates to HIV. The conditions noted are these: described in Org. Biomol. Chem., 2003, 3514-3526; cited from earlier work.
Where [6] appears, read: Huh-Luc replicon cells, HCV type 1b, three days incubation, luciferase activity.

The CC50 is the concentration that lowers cell viability or growth by half. The term EC50 denotes the concentration that produces a half-maximal response. For the molecule `C[C@H](NP(=O)(OC[C@H]1O[C@@H](n2ccc(=O)[nH]c2=O)[C@@]2(CCO2)[C@@H]1O)Oc1cccc2ccccc12)C(=O)OCc1ccccc1` (stereo partly drawn) [Compound 12k], the CC50 in data set [1] and in data set [2] was over 98 µM throughout. The EC50 in data set [3] (setting [6]) was 2 µM; in data set [4] it was over 76.9 µM.
`CC(C)COC(=O)[C@H](C)NP(=O)(OC[C@H]1O[C@@H](n2ccc(=O)[nH]c2=O)[C@@]2(CCO2)[C@@H]1O)Oc1ccccc1` (stereo partly drawn) [Compound 12l]: the CC50 in data set [1] and in data set [2] was over 98 µM throughout. Besides, the EC50 in data set [3] (setting [6]) was 0.44 µM; in data set [4], over 98 µM.
On to `C[C@H](NP(=O)(OC[C@H]1O[C@@H](n2ccc(=O)[nH]c2=O)[C@@]2(CCO2)[C@@H]1O)Oc1ccc(Cl)cc1)C(=O)OCc1ccccc1` (stereo partly drawn) [Compound 12j], for which the CC50 in data set [1] and in data set [2] was over 98 µM throughout. In addition, the figures for the EC50 in data set [3] (setting [6]) and in data set [4] were 0.7 µM and over 98 µM, respectively.
Consider `CCCCOC(=O)[C@H](C)NP(=O)(OC[C@H]1O[C@@H](n2ccc(=O)[nH]c2=O)[C@@]2(CCO2)[C@@H]1O)Oc1ccccc1` (stereo partly drawn) [Compound 12d], for which the CC50 in data set [1] and in data set [2] was over 98 µM in each case. The EC50 in data set [3] (setting [6]) was 5.5 µM; in data set [4] it was over 98 µM.
Regarding `O=C(OCc1ccccc1)[C@@H](NP(=O)(OC[C@H]1O[C@@H](n2ccc(=O)[nH]c2=O)[C@@]2(CCO2)[C@@H]1O)Oc1ccccc1)c1ccccc1` (stereo partly drawn) [Compound 12h], the CC50 in data set [1] was over 98 µM; in data set [2], over 88 µM. In addition, the EC50 was 79.6 µM in data set [3] and over 98 µM in data set [4].
Consider `C[C@H](NP(=O)(OC[C@H]1O[C@@H](n2ccc(=O)[nH]c2=O)[C@@]2(CCO2)[C@@H]1O)Oc1ccccc1)C(=O)OCc1ccccc1` (stereo partly drawn) [Compound 12b], for which the CC50 in data set [1] and in data set [2] was over 98 µM in each case. Further, the results for the EC50 in data set [3] (setting [6]) and in data set [4] were 3.7 µM and over 98 µM, respectively.
For `O=C(CNP(=O)(OC[C@H]1O[C@@H](n2ccc(=O)[nH]c2=O)[C@@]2(CCO2)[C@@H]1O)Oc1ccc(Cl)cc1)OCc1ccccc1` (stereo partly drawn) [Compound 12m], the CC50 in data set [1] and in data set [2] was over 98 µM throughout. Further, the EC50 in data set [3] (setting [6]) was 7.17 µM; in data set [4], over 98 µM.
Take `CC[C@H](NP(=O)(OC[C@H]1O[C@@H](n2ccc(=O)[nH]c2=O)[C@@]2(CCO2)[C@@H]1O)Oc1ccccc1)C(=O)OC(C)C` (stereo partly drawn) [Compound 12i]: the CC50 in data set [1] and in data set [2] was over 98 µM in each case. The EC50 in data set [3] (setting [6]) is over 96 µM; in data set [4], over 98 µM.
Regarding `COC(=O)C(C)(C)NP(=O)(OC[C@H]1O[C@@H](n2ccc(=O)[nH]c2=O)[C@@]2(CCO2)[C@@H]1O)Oc1ccccc1` (stereo partly drawn) [Compound 12e, methyl 2-[[[(4R,5R,7R,8R)-5-(2,4-dioxo-3,4-dihydropyrimidin-1(2H)-yl)-8-hydroxy-1,6-dioxaspiro[3.4]octan-7-yl]methoxy](phenoxy)phosphorylamino]-2-methylpropanoate], the CC50 in data set [1] and in data set [2] was over 98 µM throughout. Moreover, the EC50 in data set [3] (setting [6]) is 23.4 µM; in data set [4], over 98 µM.
Take `Cc1ccc(C(C)C)c(OP(=O)(N[C@@H](C)C(=O)OCc2ccccc2)OC[C@H]2O[C@@H](n3ccc(=O)[nH]c3=O)[C@@]3(CCO3)[C@@H]2O)c1` (stereo partly drawn) [Compound 12f]: the values for the CC50 in data set [1] and in data set [2] were 1.3 µM and 18.7 µM, respectively. Besides, the EC50 is 8.7 µM in data set [3] (setting [6]) and over 98 µM in data set [4].
The matching figures for `CC(C)OC(=O)[C@H](C)NP(=O)(OC[C@H]1O[C@@H](n2ccc(=O)[nH]c2=O)[C@@]2(CCO2)[C@@H]1O)Oc1ccccc1` (stereo partly drawn) [Compound 12g]: over 98 µM, over 98 µM, 17.8 µM and over 98 µM.
The matching figures for `C[C@H](NP(=O)(OC[C@H]1O[C@@H](n2ccc(=O)[nH]c2=O)[C@@]2(CCO2)[C@@H]1O)Oc1ccccc1)C(=O)OCC(C)(C)C` (stereo partly drawn) [Compound 12c]: over 98 µM, over 98 µM, 5.6 µM and over 98 µM.
The matching figures for `CC[C@H](NP(=O)(OC[C@H]1O[C@@H](n2ccc(=O)[nH]c2=O)[C@@]2(CCO2)[C@@H]1O)Oc1ccccc1)C(=O)OCc1ccccc1` (stereo partly drawn) [Compound 12a]: over 98 µM, over 98 µM, 3.4 µM and over 98 µM.
For the molecule `O=c1ccn([C@@H]2O[C@H](CO)[C@@H](O)[C@]23CCO3)c(=O)[nH]1` [1-(2-O,2-C-ethano-β-D-ribofuranosyl)uracil], the “activity against HIV” value in data set [5] is recorded as “no activity”.
For `Cc1cn([C@@H]2O[C@H](CO)[C@@H](O)[C@]23CCO3)c(=O)[nH]c1=O` [1-(2-O,2-C-ethano-β-D-ribofuranosyl)thymine], the “activity against HIV” value in data set [5] was “no activity”.
